Reference: patent publication US9302999B2, “Substituted triazoles as herbicides” (E. I. DU PONT DE NEMOURS AND COMPANY, priority 2012, dated 2016)

Key:
Assay type in all cases: in vivo
[1] = test system: galium (catchweed bedstraw, Galium aparine); assay: Test C pre-/postemergence: galium
Procedure, shortened: (§1)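 Visual injury scored 0–100 (100 = complete control) against untreated controls after 13–15 greenhouse days. Surfactant-containing solvent formulations applied either to soil after sowing (loam/sand) or over 1- to 4-leaf plants, 2–18 cm tall.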

[2] = test system: crabgrass, large (large crabgrass, Digitaria sanguinalis); assay: Test A pre-/postemergence: crabgrass, large
Procedure, shortened: (§2)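 Soil medium was loam blended with sand; treatments pre- and postemergence were applied concurrently, postemergence at one- to two-leaf stage. Approximately ten days in greenhouse preceded visual comparison with untreated controls, scored 0 (no effect) to 100 (complete control).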

[3] = test system: johnsongrass (Sorghum halepense); assay: Test C pre-/postemergence: johnsongrass
Procedure, shortened: as §1

wild oat (Avena fatua) = assay: Test C pre-/postemergence: wild oat
Procedure, shortened: as §1

[4] = test system: pigweed (Amaranthus retroflexus); assay: Test C pre-/postemergence: pigweed
Procedure, shortened: as §1

[5] = test system: velvetleaf (Abutilon theophrasti); assay: Test A pre-/postemergence: velvetleaf
Procedure, shortened: as §2

kochia (Kochia scoparia) = assay: Test C pre-/postemergence: kochia
Procedure, shortened: as §1

corn (Zea mays) = assay: Test C pre-/postemergence: corn
Procedure, shortened: as §1

[6] = test system: chickweed (common chickweed, Stellaria media); assay: Test C postemergence: chickweed
Procedure, shortened: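 Seedlings are raised in pots of peat-based medium to 2–18 cm (1- to 4-leaf stage). The formulated compound is then applied postemergence. Plants stay in the greenhouse for 13 to 15 days and are rated visually against controls, where 0 means no effect and 100 complete control.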

[7] = test system: lambsquarters (Chenopodium album); assay: Test C pre-/postemergence: lambsquarters
Procedure, shortened: as §1

soybean (Glycine max) = assay: Test C pre-/postemergence: soybean
Procedure, shortened: as §1

[8] = test system: foxtail, giant (giant foxtail, Setaria faberii); assay: Test A pre-/postemergence: foxtail, giant
Procedure, shortened: as §2

[9] = Postemergence, 31 g ai/ha, scale 0 to 100 (0 no effect, 100 complete control)
[10] = Postemergence, 62 g ai/ha, scale 0 to 100 (0 no effect, 100 complete control)
[11] = Postemergence, 125 g ai/ha, scale 0 to 100, 0 no effect, 100 complete control
[12] = Postemergence, 250 g ai/ha, scale 0 to 100 (0 no effect, 100 complete control)
[13] = Preemergence, 31 g ai/ha, scale 0 (no effect) to 100 (complete control)
[14] = Preemergence, 62 g ai/ha, scale of 0 to 100, 0 is no effect, 100 is complete control
[15] = Preemergence, 125 g ai/ha, scale 0 to 100, 0 no effect, 100 complete control
[16] = Preemergence, 250 g ai/ha, scale 0 to 100, 0 no effect, 100 complete control
[17] = Postemergence, 125 g ai/ha, 0 to 100 scale, 0 is no effect, 100 is complete control
[18] = Postemergence, 500 g ai/ha, 0 to 100 scale, 0 is no effect, 100 is complete control
[19] = Preemergence, 125 g ai/ha, 0 to 100 scale where 0 is no effect and 100 is complete control
[20] = Preemergence, 500 g ai/ha, 0 to 100 scale (0 no effect, 100 complete control)
[21] = 31 g ai/ha, scale 0 to 100 (0 no effect, 100 complete control)
[22] = 62 g ai/ha, scale 0 to 100 (0 no effect, 100 complete control)
[23] = 125 g ai/ha, scale 0 to 100, 0 no effect, 100 complete control
[24] = Postemergence, 16 g ai/ha, scale 0 to 100, 0 no effect, 100 complete control
[25] = Postemergence, 1000 g ai/ha, visual rating on 0 to 100 scale (0 no effect, 100 complete control), approximately ten days
[26] = Preemergence, 1000 g ai/ha, 0 to 100 scale, 0 is no effect, 100 is complete control

SMILES: CCOc1nn(-c2ccc(F)cc2)nc1Cc1ccnc(C(F)F)c1 [Compound 195]
- Plant response rating, Galium [1, 9]: 80
- Plant response rating, Galium [1, 10]: 95
- Plant response rating, Galium [1, 11]: 95
- Plant response rating, Galium [1, 12]: 95
- Plant response rating, Galium [1, 13]: 10
- Plant response rating, Galium [1, 14]: 80
- Plant response rating, Galium [1, 15]: 90
- Plant response rating, Galium [1, 16]: 95
- Plant response rating, Crabgrass, Large [2, 17]: 90
- Crabgrass, Large plant response rating [2, 18]: 90
- Plant response rating, Crabgrass, Large [2, 19]: 100
- Plant response rating, Crabgrass, Large [2, 20]: 100
- Plant response rating, Johnsongrass [3, 9]: 55
- Plant response rating, Johnsongrass [3, 10]: 80
- Plant response rating, Johnsongrass [3, 11]: 95
- Plant response rating, Johnsongrass [3, 12]: 95
- Plant response rating, Johnsongrass [3, 15]: 98
- Plant response rating, Johnsongrass [3, 16]: 100
- Plant response rating, Oat, Wild (wild oat (Avena fatua); [9]): 60
- Plant response rating, Oat, Wild (wild oat (Avena fatua); [10]): 75
- Plant response rating, Oat, Wild (wild oat (Avena fatua); [11]): 80
- Plant response rating, Oat, Wild (wild oat (Avena fatua); [12]): 85
- Plant response rating, Oat, Wild (wild oat (Avena fatua); [13]): 80
- Plant response rating, Oat, Wild (wild oat (Avena fatua); [14]): 90
- Plant response rating, Oat, Wild (wild oat (Avena fatua); [16]): 90
- Plant response rating, Pigweed [4, 9]: 95
- Plant response rating, Pigweed [4, 10]: 95
- Plant response rating, Pigweed [4, 11]: 98
- Plant response rating, Pigweed [4, 12]: 98
- Plant response rating, Pigweed [4, 13]: 98
- Plant response rating, Pigweed [4, 14]: 98
- Plant response rating, Pigweed [4, 15]: 100
- Plant response rating, Pigweed [4, 16]: 100
- Plant response rating, Velvetleaf [5, 17]: 90
- Velvetleaf plant response rating [5, 18]: 100
- Plant response rating, Velvetleaf [5, 19]: 70
- Plant response rating, Velvetleaf [5, 20]: 80
- Plant response rating, Kochia (kochia (Kochia scoparia); [9]): 75
- Plant response rating, Kochia (kochia (Kochia scoparia); [10]): 85
- Plant response rating, Kochia (kochia (Kochia scoparia); [11]): 90
- Plant response rating, Kochia (kochia (Kochia scoparia); [12]): 95
- Plant response rating, Kochia (kochia (Kochia scoparia); [13]): 60
- Plant response rating, Kochia (kochia (Kochia scoparia); [14]): 75
- Plant response rating, Kochia (kochia (Kochia scoparia); [16]): 95
- Plant response rating, Corn (corn (Zea mays); [9]): 60
- Plant response rating, Corn (corn (Zea mays); [10]): 75
- Plant response rating, Corn (corn (Zea mays); Postemergence, 250 g ai/ha, scale 0 to 100): 80
- Plant response rating, Corn (corn (Zea mays); [13]): 0
- Plant response rating, Corn (corn (Zea mays); [14]): 5
- Plant response rating, Corn (corn (Zea mays); [15]): 15
- Plant response rating, Corn (corn (Zea mays); [16]): 35
- Plant response rating, Chickweed [6, 21]: 95
- Plant response rating, Chickweed [6, 22]: 95
- Plant response rating, Chickweed [6, 23]: 98
- Plant response rating, Chickweed ([6]; 250 g ai/ha, scale 0 to 100): 98
- Plant response rating, Lambsquarters [7, 9]: 95
- Plant response rating, Lambsquarters [7, 10]: 95
- Plant response rating, Lambsquarters [7, 11]: 95
- Plant response rating, Lambsquarters [7, 12]: 95
- Plant response rating, Lambsquarters [7, 13]: 55
- Plant response rating, Lambsquarters [7, 14]: 80
- Plant response rating, Lambsquarters [7, 15]: 90
- Plant response rating, Lambsquarters [7, 16]: 95
- Plant response rating, Soybean (soybean (Glycine max); [9]): 40
- Plant response rating, Soybean (soybean (Glycine max); [10]): 40
- Plant response rating, Soybean (soybean (Glycine max); [11]): 65
- Plant response rating, Soybean (soybean (Glycine max); [12]): 65
- Plant response rating, Soybean (soybean (Glycine max); [13]): 0
- Plant response rating, Soybean (soybean (Glycine max); [14]): 0
- Plant response rating, Soybean (soybean (Glycine max); [15]): 0
- Plant response rating, Soybean (soybean (Glycine max); [16]): 25
- Plant response rating, Foxtail, Giant [8, 17]: 90
- Foxtail, Giant plant response rating [8, 18]: 90
- Plant response rating, Foxtail, Giant [8, 19]: 100
- Plant response rating, Foxtail, Giant [8, 20]: 100

SMILES: Cc1nn(-c2ccc(C(F)(F)F)cc2)nc1Cc1cccc(C(F)(F)F)c1 [Compound 124]
- Plant response rating, Galium [1, 24]: 70
- Plant response rating, Galium [1, 9]: 70
- Plant response rating, Galium [1, 10]: 80
- Plant response rating, Galium [1, 11]: 85
- Crabgrass, Large plant response rating [2, 25]: 90
- Crabgrass, Large plant response rating [2, 26]: 100
- Plant response rating, Johnsongrass [3, 24]: 5
- Plant response rating, Johnsongrass [3, 9]: 5
- Plant response rating, Johnsongrass [3, 10]: 40
- Plant response rating, Johnsongrass [3, 11]: 45
- Plant response rating, Oat, Wild (wild oat (Avena fatua); [24]): 20
- Plant response rating, Oat, Wild (wild oat (Avena fatua); [9]): 20
- Plant response rating, Oat, Wild (wild oat (Avena fatua); [10]): 25
- Plant response rating, Oat, Wild (wild oat (Avena fatua); [11]): 35
- Plant response rating, Pigweed [4, 24]: 75
- Plant response rating, Pigweed [4, 9]: 90
- Plant response rating, Pigweed [4, 10]: 95
- Plant response rating, Pigweed [4, 11]: 98
- Velvetleaf plant response rating [5, 25]: 100
- Velvetleaf plant response rating [5, 26]: 80
- Plant response rating, Kochia (kochia (Kochia scoparia); [24]): 75
- Plant response rating, Kochia (kochia (Kochia scoparia); [9]): 80
- Plant response rating, Kochia (kochia (Kochia scoparia); [10]): 80
- Plant response rating, Kochia (kochia (Kochia scoparia); [11]): 85
- Plant response rating, Corn (corn (Zea mays); [24]): 5
- Plant response rating, Corn (corn (Zea mays); [9]): 20
- Plant response rating, Corn (corn (Zea mays); [10]): 25
- Plant response rating, Corn (corn (Zea mays); [11]): 25
- Plant response rating, Chickweed ([6]; 16 g ai/ha, scale 0 to 100, 0 no effect, 100 complete control): 45
- Plant response rating, Chickweed [6, 21]: 50
- Plant response rating, Chickweed [6, 22]: 55
- Plant response rating, Chickweed [6, 23]: 55
- Plant response rating, Lambsquarters [7, 24]: 85
- Plant response rating, Lambsquarters [7, 9]: 95
- Plant response rating, Lambsquarters [7, 10]: 98
- Plant response rating, Lambsquarters [7, 11]: 98
- Plant response rating, Soybean (soybean (Glycine max); [24]): 45
- Plant response rating, Soybean (soybean (Glycine max); [9]): 55
- Plant response rating, Soybean (soybean (Glycine max); [10]): 55
- Plant response rating, Soybean (soybean (Glycine max); [11]): 60
- Foxtail, Giant plant response rating [8, 25]: 90
- Foxtail, Giant plant response rating [8, 26]: 100
